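96-well plates; 48 h exposure; 5 concentrations. Endpoints by linear interpolation between flanking doses. Not reached: highest tested concentration assigned. GI50: concentration for 50% inhibition of growth.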 Activity calls are given as the source filed them. Rule as the data show it: active = GI50 up to about 1.1 µM and inactive = higher.
Assays:
Assay in all cases: NCI anticancer screen, dose series, 48 h
UO-31 = tested on: UO-31
OVCAR-8 = tested on: OVCAR-8
SF-295 = tested on: SF-295
NCI-H460 = tested on: NCI-H460
Malme-3M = tested on: Malme-3M
MDA-MB-231 = tested on: MDA-MB-231
SN12C = tested on: SN12C
SF-268 = tested on: SF-268
OVCAR-3 = tested on: OVCAR-3
UACC-257 = tested on: UACC-257
A549 = tested on: A549
IGROV-1 = tested on: IGROV-1
NCI-H522 = tested on: NCI-H522
M14 = tested on: M14
MCF7 = tested on: MCF7
MDA-MB-435 = tested on: MDA-MB-435
OVCAR-4 = tested on: OVCAR-4
SF-539 = tested on: SF-539
HCT-15 = tested on: HCT-15
CCRF-CEM = tested on: CCRF-CEM

Row | Structure (SMILES) | GI50 (UO-31) | GI50 (OVCAR-8) | GI50 (SF-295) | GI50 (NCI-H460) | GI50 (Malme-3M) | GI50 (MDA-MB-231) | GI50 (SN12C) | GI50 (SF-268) | GI50 (OVCAR-3) | GI50 (UACC-257) | GI50 (A549) | GI50 (IGROV-1) | GI50 (NCI-H522) | GI50 (M14) | GI50 (MCF7) | GI50 (MDA-MB-435) | GI50 (OVCAR-4) | GI50 (SF-539) | GI50 (HCT-15) | GI50 (CCRF-CEM)
1 | O=C1Nc2ccccc2/C1=N\c1cccc2ncccc12 | > 100 µM (inactive) | > 100 µM (inactive) | 53.3 µM (inactive) | 69.7 µM (inactive) | > 100 µM (inactive) | > 100 µM (inactive) | > 100 µM (inactive) | 67.1 µM (inactive) | 63.7 µM (inactive) | 41 µM (inactive) | 81.5 µM (inactive) | 51.1 µM (inactive) | 28.1 µM (inactive) | > 100 µM (inactive) | 50.5 µM (inactive) | 20 µM (inactive) | 68.9 µM (inactive) | > 100 µM (inactive) | 68.1 µM | –
2 | COc1ccc(SC(C)(SC)c2ccccn2)c(OC)n1 (configuration not stated) | > 100 µM (inactive) | 75.7 µM (inactive) | 49.2 µM (inactive) | 73.1 µM (inactive) | 71.1 µM (inactive) | > 100 µM (inactive) | > 100 µM (inactive) | > 100 µM (inactive) | 52.8 µM (inactive) | 67.3 µM (inactive) | 79.4 µM (inactive) | > 100 µM (inactive) | 36.3 µM (inactive) | > 100 µM (inactive) | 60.1 µM (inactive) | > 100 µM (inactive) | 83.4 µM (inactive) | > 100 µM (inactive) | 54.7 µM | –
3 | COc1cc2[nH]c(=O)c3cc(C)cc4c(Cl)nc(c1OC)c2c43 | > 100 µM (inactive) | 95.9 µM (inactive) | 43.7 µM (inactive) | 23.4 µM (inactive) | 18 µM (inactive) | 76.6 µM (inactive) | – | 20.4 µM (inactive) | > 100 µM (inactive) | > 100 µM (inactive) | 45.7 µM (inactive) | 67.8 µM (inactive) | 36.3 µM (inactive) | > 100 µM (inactive) | 32.9 µM (inactive) | 57.3 µM (inactive) | > 100 µM (inactive) | 29.9 µM (inactive) | > 100 µM | 27.9 µM (inactive)
4 | COC(=O)CCC(=O)NC1=C(Nc2ccc(OC)cc2)C(=O)c2ccccc2C1=O | 15.4 µM (inactive) | 14.1 µM (inactive) | 13 µM (inactive) | 7.21 µM (inactive) | 2.05 µM (inactive) | 10.7 µM (inactive) | 13.1 µM (inactive) | 18.9 µM (inactive) | 3.18 µM (inactive) | 4.61 µM (inactive) | 14 µM (inactive) | 11.9 µM (inactive) | 10.8 µM (inactive) | 7.26 µM (inactive) | 4.11 µM (inactive) | 2 µM (inactive) | 11.8 µM (inactive) | 14.2 µM (inactive) | 7.18 µM | 26.1 µM (inactive)
5 | C/C=C/C(C#N)(Cc1ccccc1)OP1(=O)OC(c2ccccc2)C(C)N1C (configuration not stated) | 55.3 µM (inactive) | 86.7 µM (inactive) | 49.1 µM (inactive) | 43.6 µM (inactive) | > 100 µM (inactive) | > 100 µM (inactive) | 81.7 µM (inactive) | > 100 µM (inactive) | 56.8 µM (inactive) | 65.8 µM (inactive) | 66.4 µM (inactive) | 95.3 µM (inactive) | 50.1 µM (inactive) | > 100 µM (inactive) | 54.2 µM (inactive) | 48.4 µM (inactive) | – | > 100 µM (inactive) | 79.6 µM | 19.4 µM (inactive)
6 | O=C1CCSc2nc(-c3ccc4c(c3)OCO4)nn21 | – | > 10 µM (inactive) | > 10 µM (inactive) | > 10 µM (inactive) | > 10 µM (inactive) | > 10 µM (inactive) | > 10 µM (inactive) | > 10 µM (inactive) | > 10 µM (inactive) | > 10 µM (inactive) | > 10 µM (inactive) | > 10 µM (inactive) | > 10 µM (inactive) | > 10 µM (inactive) | > 10 µM (inactive) | > 10 µM (inactive) | > 10 µM (inactive) | > 10 µM (inactive) | > 10 µM | > 10 µM (inactive)
7 | O=[N+]([O-])c1ccc2c3c1[C@H]1O[C@H]1c1cccc(c1-3)[C@@H]1O[C@H]21 | 2 µM (inactive) | 0.91 µM (active) | 3.5 µM (inactive) | – | 2.4 µM (inactive) | 2.01 µM (inactive) | 2.12 µM (inactive) | 1.98 µM (inactive) | 2.63 µM (inactive) | 1.82 µM (inactive) | 3.2 µM (inactive) | – | 1.67 µM (inactive) | 1.71 µM (inactive) | 2.11 µM (inactive) | 1.85 µM (inactive) | 2.12 µM (inactive) | 2.3 µM (inactive) | 1.71 µM | 1.44 µM (inactive)
8 | COc1cc(C(=O)Oc2c(C(C)=O)sc3c2c(=O)n(-c2ccccc2)c(=S)n3-c2ccccc2)cc(OC)c1OC | – | 18.8 µM (inactive) | 8.3 µM (inactive) | 12.6 µM (inactive) | 8.17 µM (inactive) | 25.9 µM (inactive) | 11.9 µM (inactive) | 24.5 µM (inactive) | 18.2 µM (inactive) | 28.1 µM (inactive) | 28.9 µM (inactive) | 21 µM (inactive) | 1.01 µM (active) | 16.9 µM (inactive) | 19.5 µM (inactive) | 22.5 µM (inactive) | 24.5 µM (inactive) | 11.6 µM (inactive) | 22.2 µM | 15.3 µM (inactive)
9 | COc1cc(NC(C)CCCN)c2nccc(C)c2c1 (configuration not stated) | 15.6 µM (inactive) | – | 15.3 µM (inactive) | 22.3 µM (inactive) | 20 µM (inactive) | > 10 µM (inactive) | 31.4 µM (inactive) | 24.3 µM (inactive) | 23.1 µM (inactive) | – | 55.7 µM (inactive) | 16.5 µM (inactive) | 17.5 µM (inactive) | 18.9 µM (inactive) | 16.2 µM (inactive) | 16.7 µM (inactive) | 21.8 µM (inactive) | 17.5 µM (inactive) | 21.3 µM | –
10 | COC1CCC(OS(C)(=O)=O)C(C)O1 (configuration not stated) | – | > 10 µM (inactive) | > 10 µM (inactive) | > 10 µM (inactive) | > 10 µM (inactive) | > 10 µM (inactive) | > 10 µM (inactive) | > 10 µM (inactive) | > 10 µM (inactive) | > 10 µM (inactive) | > 10 µM (inactive) | > 10 µM (inactive) | > 10 µM (inactive) | > 10 µM (inactive) | > 10 µM (inactive) | > 10 µM (inactive) | > 10 µM (inactive) | > 10 µM (inactive) | > 10 µM | > 10 µM (inactive)
11 | Clc1ccc(COC(Cn2ccnc2)c2ccc(Cl)cc2Cl)c(Cl)c1 (configuration not stated) [MICONAZOLE NITRATE] | 2.94 µM (inactive) | 8.39 µM (inactive) | 10.8 µM (inactive) | 12.6 µM (inactive) | 12.5 µM (inactive) | 11.9 µM (inactive) | 7.96 µM (inactive) | 10.3 µM (inactive) | 9.86 µM (inactive) | 11 µM (inactive) | 10.9 µM (inactive) | – | 8.2 µM (inactive) | 10.6 µM (inactive) | 14.7 µM (inactive) | 3.37 µM (inactive) | 11.9 µM (inactive) | 14.6 µM (inactive) | 10.2 µM | 5.82 µM (inactive)

From ChEMBL document CHEMBL1201862, “PubChem BioAssay data set” (2004)
